# Values of other authors, collected in publication PMC11336009 (GeroScience, 2024).
# Columns and labels:
# Conditions in all cases: cited from earlier work
# [1] = system: rat 3-nitropropionic acid (3NP) model; parameters: method as in PMID 31728850
# rat rotenone model of PD = system: rat rotenone model of PD
# [2] = system: diabetic mice after ischemic stroke; parameters: method as in PMID 24821550
compound,measurement,setting,value
N#C[C@@H]1CCCN1C(=O)CNC12CC3CC(CC(O)(C3)C1)C2 [Vildagliptin],Effects in striatum of rat 3NP model of late-stage Huntington's disease,[1],reduce neuronal degeneration and markers of oxidative stress
same,Effects in rat rotenone PD model,rat rotenone model of PD,"mitigate striatal DA loss, neuroinflammation and motor deficits"
"liraglutide (HAEGTFTSDVSSYLEGQAAKEFIAWLVRGRG; chains of the INN, looked up) [GLP-1R agonist]",Effects in rat rotenone model of PD,rat rotenone model of PD,"mitigated motor deficits, striatal DA loss, SNc dopaminergic neuronal degeneration and neuroinflammation"
N#C[C@@H]1C[C@@H]2C[C@@H]2N1C(=O)[C@@H](N)C12CC3CC(CC(O)(C3)C1)C2 [saxagliptin],Effects in rat rotenone PD model,rat rotenone model of PD,preserve TH levels within the SNc and mitigate striatal declines in DA and TH levels
Cn1c(=O)cc(N2CCC[C@@H](N)C2)n(Cc2ccccc2C#N)c1=O [alogliptin],Effects in rotenone challenged PD rats,rat rotenone model of PD; same effects as described for saxagliptin,do the same
CC#CCn1c(N2CCC[C@@H](N)C2)nc2c1c(=O)n(Cc1nc(C)c3ccccc3n1)c(=O)n2C [linagliptin],Neural stem cell proliferation after ischemic stroke,[2],augment neural stem cell proliferation
